PMC6345968, “Structural basis for species-selective targeting of Hsp90 in a pathogenic fungus” (Nature Communications, 2019)
Like-named read-outs stand apart in the source and are kept apart here.

Tests used:
[1] = tested on: Hsp90 in 3T3 lysate; assay: FP competition in whole-cell lysate; format: binding, mouse; details: 3T3 lysate
Experimental: After vortexing, cell lysate was frozen at −80 °C for 2 h, followed by thawing on ice. The vortex-freeze-thaw step was repeated. […] Aliquots were thawed immediately prior to use.

[2] = tested on: Hsp90 in HEPG2 lysate; details: HepG2 lysate
[3] = molecular target: T1, C. albicans Hsp90 NBD (Candida albicans, UniProt P46598); assay: biochemical; format: binding; details: 0.1 nM Cy3-GdA, C. albicans NBD-Hsp90 (10 nM); for FP signal (raw) / FP signal as fraction of no-compound (0 uM) control: Experiments 1-3
T1 construct: C. albicans Hsp90 (E7-K218); made in house; host or cells: E. coli Rosetta2

[4] = molecular target: T2, Hsp90 in C. albicans (SC5314) lysate (Candida albicans, UniProt P46598); assay: biochemical; format: binding; details: SC5314 lysate
T2 construct: endogenous in cells; host or cells: C. albicans SC5314 whole-cell lysate

[5] = molecular target: human Grp94 NBD (Homo sapiens, UniProt P14625); details: 0.1 nM Cy3-GdA; for FP signal (raw) / FP signal as fraction of no-compound (0 uM) control: Experiments 1-3
[6] = molecular target: human Hsp90 NBD (Homo sapiens, UniProt P08238); details: 0.1 nM Cy3-GdA, Human NBD-Hsp90 (10 nM); for FP signal (raw) / FP signal as fraction of no-compound (0 uM) control: Experiments 1-3
[7] = Experiments 1-3, one value per experiment

T1 sequence (P46598 7-218): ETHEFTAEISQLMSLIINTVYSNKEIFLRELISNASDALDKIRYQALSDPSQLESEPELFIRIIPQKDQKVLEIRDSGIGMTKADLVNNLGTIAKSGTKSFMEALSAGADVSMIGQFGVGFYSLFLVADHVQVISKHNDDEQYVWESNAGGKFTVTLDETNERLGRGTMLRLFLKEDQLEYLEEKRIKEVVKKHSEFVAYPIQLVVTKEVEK
Chain of human Grp94 NBD (P14625 63-337): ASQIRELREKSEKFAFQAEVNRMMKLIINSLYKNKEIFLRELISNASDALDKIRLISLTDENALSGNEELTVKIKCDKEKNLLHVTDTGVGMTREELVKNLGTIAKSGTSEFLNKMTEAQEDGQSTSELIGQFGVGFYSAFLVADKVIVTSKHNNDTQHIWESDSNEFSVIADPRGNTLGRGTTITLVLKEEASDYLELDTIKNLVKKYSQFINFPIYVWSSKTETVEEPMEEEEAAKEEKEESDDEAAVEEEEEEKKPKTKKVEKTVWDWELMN
T2 sequence (P46598 whole entry): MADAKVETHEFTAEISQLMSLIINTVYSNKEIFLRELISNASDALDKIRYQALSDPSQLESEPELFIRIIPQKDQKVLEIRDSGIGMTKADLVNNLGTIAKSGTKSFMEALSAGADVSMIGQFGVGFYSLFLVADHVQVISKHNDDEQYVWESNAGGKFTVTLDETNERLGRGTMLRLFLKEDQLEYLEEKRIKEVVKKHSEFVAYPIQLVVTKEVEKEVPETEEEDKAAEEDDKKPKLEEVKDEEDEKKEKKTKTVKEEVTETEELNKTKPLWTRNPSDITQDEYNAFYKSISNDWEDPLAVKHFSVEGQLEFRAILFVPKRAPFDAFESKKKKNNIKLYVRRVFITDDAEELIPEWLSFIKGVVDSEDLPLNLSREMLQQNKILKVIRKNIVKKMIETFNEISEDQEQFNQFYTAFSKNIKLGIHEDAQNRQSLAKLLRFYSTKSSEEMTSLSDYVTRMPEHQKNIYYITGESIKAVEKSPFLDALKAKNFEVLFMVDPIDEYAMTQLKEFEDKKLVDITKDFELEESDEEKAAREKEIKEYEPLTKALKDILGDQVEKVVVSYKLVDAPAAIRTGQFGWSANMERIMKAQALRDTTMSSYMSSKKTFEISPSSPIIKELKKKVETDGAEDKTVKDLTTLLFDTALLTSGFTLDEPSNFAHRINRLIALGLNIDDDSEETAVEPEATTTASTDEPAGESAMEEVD
Chain of human Hsp90 NBD (P08238 1-223): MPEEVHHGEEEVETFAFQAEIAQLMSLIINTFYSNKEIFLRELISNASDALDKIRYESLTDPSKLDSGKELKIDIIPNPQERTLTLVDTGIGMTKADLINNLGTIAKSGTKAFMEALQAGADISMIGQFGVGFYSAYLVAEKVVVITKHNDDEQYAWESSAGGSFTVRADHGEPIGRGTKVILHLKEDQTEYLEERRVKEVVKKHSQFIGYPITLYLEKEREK

COc1ccc(CON=C2C=CC=CC3OC3CC(C)OC(=O)c3c(O)cc(O)cc3C2)cc1 (mixture of isomers) [CMLD075]
FP signal (raw) ([1]; 0.01 uM): 243
FP signal, fraction of control ([1]; 0.01 uM): 0.9681
FP signal (raw) ([1]; 0.02 uM): 243
FP signal, fraction of control ([1]; 0.02 uM): 0.9681
FP signal (raw) ([1]; 0.078 uM): 240
FP signal, fraction of control ([1]; 0.078 uM): 0.9562
FP signal (raw) ([1]; 0.313 uM): 223
FP signal, fraction of control ([1]; 0.313 uM): 0.8884
FP signal (raw) ([1]; 0.625 uM): 206
FP signal, fraction of control ([1]; 0.625 uM): 0.8207
FP signal (raw) ([1]; 2.5 uM): 144
FP signal, fraction of control ([1]; 2.5 uM): 0.5737
FP signal (raw) ([1]; 5 uM): 102
FP signal, fraction of control ([1]; 5 uM): 0.4064
FP signal (raw) ([1]; 10 uM): 52
FP signal, fraction of control ([1]; 10 uM): 0.2072
EC50 ([1]; fit against log conc uM): 3.42 µM
FP signal (raw) ([2]; 0.01 uM): 200
FP signal, fraction of control ([2]; 0.01 uM): 0.9132
FP signal (raw) ([2]; 0.02 uM): 199
FP signal, fraction of control ([2]; 0.02 uM): 0.9087
FP signal (raw) ([2]; 0.078 uM): 186
FP signal, fraction of control ([2]; 0.078 uM): 0.8493
FP signal (raw) ([2]; 0.313 uM): 164
FP signal, fraction of control ([2]; 0.313 uM): 0.7489
FP signal (raw) ([2]; 0.625 uM): 146
FP signal, fraction of control ([2]; 0.625 uM): 0.6667
FP signal (raw) ([2]; 2.5 uM): 88
FP signal, fraction of control ([2]; 2.5 uM): 0.4018
FP signal (raw) ([2]; 5 uM): 53
FP signal, fraction of control ([2]; 5 uM): 0.242
FP signal (raw) ([2]; 10 uM): 32
FP signal, fraction of control ([2]; 10 uM): 0.1461
EC50 ([2]; fit against log conc uM): 1.8 µM
EC50 [3, 7]: 47.8 nM
FP signal (raw) ([3]; Cmpd 0.002 uM): 81
FP signal as fraction of no-compound (0 uM) control ([3]; Cmpd 0.002 uM): 0.8526
FP signal (raw) ([3]; Cmpd 0.004 uM): 80
FP signal as fraction of no-compound (0 uM) control ([3]; Cmpd 0.004 uM): 0.8421
FP signal (raw) ([3]; Cmpd 0.008 uM): 78
FP signal as fraction of no-compound (0 uM) control ([3]; Cmpd 0.008 uM): 0.8211
FP signal (raw) ([3]; Cmpd 0.016 uM): 72
FP signal as fraction of no-compound (0 uM) control ([3]; Cmpd 0.016 uM): 0.7579
FP signal (raw) ([3]; Cmpd 0.063 uM): 36
FP signal as fraction of no-compound (0 uM) control ([3]; Cmpd 0.063 uM): 0.3789
FP signal (raw) ([3]; Cmpd 0.25 uM): 16
FP signal as fraction of no-compound (0 uM) control ([3]; Cmpd 0.25 uM): 0.1684
FP signal (raw) ([3]; Cmpd 0.5 uM): 10
FP signal as fraction of no-compound (0 uM) control ([3]; Cmpd 0.5 uM): 0.1053
FP signal (raw) ([3]; Cmpd 1 uM): 7
FP signal as fraction of no-compound (0 uM) control ([3]; Cmpd 1 uM): 0.07368
FP signal (raw) ([3]; Cmpd 2 uM): 8
FP signal as fraction of no-compound (0 uM) control ([3]; Cmpd 2 uM): 0.08421
FP signal (raw) ([4]; 0.002 uM): 169
FP signal, fraction of control ([4]; 0.002 uM): 0.8989
FP signal (raw) ([4]; 0.004 uM): 160
FP signal, fraction of control ([4]; 0.004 uM): 0.8511
FP signal (raw) ([4]; 0.008 uM): 155
FP signal, fraction of control ([4]; 0.008 uM): 0.8245
FP signal (raw) ([4]; 0.01 uM): 60
FP signal, fraction of control ([4]; 0.01 uM): 0.3226
FP signal (raw) ([4]; 0.016 uM): 142
FP signal, fraction of control ([4]; 0.016 uM): 0.7553
FP signal (raw) ([4]; 0.02 uM): 50
FP signal, fraction of control ([4]; 0.02 uM): 0.2688
FP signal (raw) ([4]; 0.063 uM): 103
FP signal, fraction of control ([4]; 0.063 uM): 0.5479
FP signal (raw) ([4]; 0.078 uM): 24
FP signal, fraction of control ([4]; 0.078 uM): 0.129
FP signal (raw) ([4]; 0.25 uM): 60
FP signal, fraction of control ([4]; 0.25 uM): 0.3191
FP signal (raw) ([4]; 0.313 uM): 14
FP signal, fraction of control ([4]; 0.313 uM): 0.07527
FP signal (raw) ([4]; 0.5 uM): 38
FP signal, fraction of control ([4]; 0.5 uM): 0.2021
FP signal (raw) ([4]; 0.625 uM): 7
FP signal, fraction of control ([4]; 0.625 uM): 0.03763
FP signal (raw) ([4]; 1 uM): 6
FP signal, fraction of control ([4]; 1 uM): 0.03191
FP signal (raw) ([4]; 2 uM): 0
FP signal, fraction of control ([4]; 2 uM): 0
FP signal (raw) ([4]; 2.5 uM): 3
FP signal, fraction of control ([4]; 2.5 uM): 0.01613
FP signal (raw) ([4]; 5 uM): 0
FP signal, fraction of control ([4]; 5 uM): 0
FP signal (raw) ([4]; 10 uM): -4
FP signal, fraction of control ([4]; 10 uM): -0.02151
EC50 ([4]; fit against log conc uM, read-out: EC50): 0.102 µM
EC50 [5, 7]: 261 nM
FP signal (raw) ([5]; Cmpd 0.002 uM): 93
FP signal as fraction of no-compound (0 uM) control ([5]; Cmpd 0.002 uM): 0.9208
FP signal (raw) ([5]; Cmpd 0.004 uM): 89
FP signal as fraction of no-compound (0 uM) control ([5]; Cmpd 0.004 uM): 0.8812
FP signal (raw) ([5]; Cmpd 0.008 uM): 88
FP signal as fraction of no-compound (0 uM) control ([5]; Cmpd 0.008 uM): 0.8713
FP signal (raw) ([5]; Cmpd 0.016 uM): 85
FP signal as fraction of no-compound (0 uM) control ([5]; Cmpd 0.016 uM): 0.8416
FP signal (raw) ([5]; Cmpd 0.063 uM): 73
FP signal as fraction of no-compound (0 uM) control ([5]; Cmpd 0.063 uM): 0.7228
FP signal (raw) ([5]; Cmpd 0.25 uM): 51
FP signal as fraction of no-compound (0 uM) control ([5]; Cmpd 0.25 uM): 0.505
FP signal (raw) ([5]; Cmpd 0.5 uM): 33
FP signal as fraction of no-compound (0 uM) control ([5]; Cmpd 0.5 uM): 0.3267
FP signal (raw) ([5]; Cmpd 1 uM): 15
FP signal as fraction of no-compound (0 uM) control ([5]; Cmpd 1 uM): 0.1485
FP signal (raw) ([5]; Cmpd 2 uM): 11
FP signal as fraction of no-compound (0 uM) control ([5]; Cmpd 2 uM): 0.1089
EC50 [6, 7]: 1250 nM
FP signal (raw) ([6]; Cmpd 0.002 uM): 100
FP signal as fraction of no-compound (0 uM) control ([6]; Cmpd 0.002 uM): 0.9615
FP signal (raw) ([6]; Cmpd 0.004 uM): 101
FP signal as fraction of no-compound (0 uM) control ([6]; Cmpd 0.004 uM): 0.9712
FP signal (raw) ([6]; Cmpd 0.008 uM): 101
FP signal as fraction of no-compound (0 uM) control ([6]; Cmpd 0.008 uM): 0.9712
FP signal (raw) ([6]; Cmpd 0.016 uM): 99
FP signal as fraction of no-compound (0 uM) control ([6]; Cmpd 0.016 uM): 0.9519
FP signal (raw) ([6]; Cmpd 0.063 uM): 96
FP signal as fraction of no-compound (0 uM) control ([6]; Cmpd 0.063 uM): 0.9231
FP signal (raw) ([6]; Cmpd 0.25 uM): 85
FP signal as fraction of no-compound (0 uM) control ([6]; Cmpd 0.25 uM): 0.8173
FP signal (raw) ([6]; Cmpd 0.5 uM): 85
FP signal as fraction of no-compound (0 uM) control ([6]; Cmpd 0.5 uM): 0.8173
FP signal (raw) ([6]; Cmpd 1 uM): 59
FP signal as fraction of no-compound (0 uM) control ([6]; Cmpd 1 uM): 0.5673
FP signal (raw) ([6]; Cmpd 2 uM): 28
FP signal as fraction of no-compound (0 uM) control ([6]; Cmpd 2 uM): 0.2692
